Columns and labels:
Format in all cases: in vivo
[1] = test system: Scirpus juncoides; assay: Test Example 2: herbicidal activity, application during weed generation in submerged conditions (symbol B); details: Table 23; application herbicide amount 320 g/ha; grade 0-5 by criteria of Test Example 1
In short: (§1)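 Each pot contained alluvial soil under 4 cm of water with seeds of all three weeds sown together. Following growth at 25° C. to 30° C. to the one- to two-leaf stage, the floodwater received diluted emulsion at a predetermined amount; visual assessment followed at 3 weeks.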

[2] = test system: rice plant; assay: Test Example 5: effect on crop by foliage application, plastic box (symbol b); details: 320 g/ha, 3 weeks after application
In short: (§2)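 A greenhouse held between 25° C. and 30° C. was used to grow plants sown spot-wise, beneath ~1.5 cm of soil, in boxes of sterilized diluvial soil.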

[3] = test system: Veronica persica; assay: Test Example 5: herbicidal effect by foliage application, plastic box (symbol R); details: 320 g/ha, 3 weeks after application
In short: (§3)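 Leaf-applied emulsion, water-diluted to a preset herbicide dose, on two-week-old seedlings raised in a 25° C. to 30° C. greenhouse; injury rated at 3 weeks using earlier criteria.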

[4] = test system: corn; assay: Test Example 5: effect on crop by foliage application, plastic box (symbol c); details: 320 g/ha, 3 weeks after application
In short: as §2

[5] = test system: soybean; assay: Test Example 5: effect on crop by foliage application, plastic box (symbol d); details: 320 g/ha, 3 weeks after application
In short: as §2

[6] = test system: Scirpus juncoides; assay: Test Example 1: herbicidal activity, application before weed generation in submerged conditions (symbol B); details: application herbicide amount 320 g/ha
In short: (§4)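 Application before weed emergence: an aqueous dilution of the emulsion formulation was poured onto the surface of 4 cm-deep floodwater on the day of sowing. Effect was judged after 3 weeks (greenhouse, 25–30 °C).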

[7] = test system: Amaranthus retroflexus; assay: Test Example 5: herbicidal effect by foliage application, plastic box (symbol N); details: 320 g/ha, 3 weeks after application
In short: as §3

[8] = test system: Avena fatua; assay: Test Example 5: herbicidal effect by foliage application, plastic box (symbol I); details: 320 g/ha, 3 weeks after application
In short: as §3

[9] = test system: wheat; assay: Test Example 5: effect on crop by foliage application, plastic box (symbol e); details: 320 g/ha, 3 weeks after application
In short: as §2

[10] = test system: directly sowed rice plant; assay: Test Example 3: effect on crop by foliage application, Wagner pot (symbol b); details: application herbicide amount 320 g/ha
In short: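 Plants are raised from seed in flooded paddy conditions: water stands 0.1–0.5 cm over alluvial soil, and the pot is kept in a greenhouse at 25–30 °C. Species sown are barnyardgrass (E. crus-galli var. crus-galli), Leptochloa chinensis, Cyperus difformis and rice.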

[11] = test system: Setaria viridis; assay: Test Example 5: herbicidal effect by foliage application, plastic box (symbol G); details: 320 g/ha, 3 weeks after application
In short: as §3

[12] = test system: Digitaria ciliaris; assay: Test Example 5: herbicidal effect by foliage application, plastic box (symbol F); details: 320 g/ha, 3 weeks after application
In short: as §3

[13] = test system: Alopecurus myosuroides; assay: Test Example 5: herbicidal effect by foliage application, plastic box (symbol J); details: 320 g/ha, 3 weeks after application
In short: as §3

[14] = test system: Cyperus difformis; assay: Test Example 3: herbicidal effect by foliage application, Wagner pot (symbol E); details: application herbicide amount 320 g/ha
In short: (§5)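 Seeds sown in alluvial soil kept under 0.1–0.5 cm water, greenhouse 25–30 °C; 14 d growth. Leaves treated by small sprayer with water-diluted emulsion at a predetermined rate. Effect graded by set scale, 3 weeks.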

[15] = test system: Echinochloa oryzacola Vasing.; assay: Test Example 2: herbicidal activity, application during weed generation in submerged conditions (symbol A); details: Table 23; application herbicide amount 320 g/ha; grade 0-5 by criteria of Test Example 1
In short: as §1

[16] = test system: rapeseed; assay: Test Example 5: effect on crop by foliage application, plastic box (symbol g); details: 320 g/ha, 3 weeks after application
In short: as §2

[17] = test system: Chenopodium album; assay: Test Example 5: herbicidal effect by foliage application, plastic box (symbol O); details: 320 g/ha, 3 weeks after application
In short: as §3

[18] = test system: Stellaria media; assay: Test Example 5: herbicidal effect by foliage application, plastic box (symbol P); details: 320 g/ha, 3 weeks after application
In short: as §3

[19] = test system: Echinochloa crus-galli var. crus-galli; assay: Test Example 3: herbicidal effect by foliage application, Wagner pot (symbol H); details: application herbicide amount 320 g/ha
In short: as §5

[20] = test system: Echinochloa oryzacola Vasing.; assay: Test Example 1: herbicidal activity, application before weed generation in submerged conditions (symbol A); details: application herbicide amount 320 g/ha
In short: as §4

[21] = test system: Abutilon theophrasti; assay: Test Example 5: herbicidal effect by foliage application, plastic box (symbol M); details: 320 g/ha, 3 weeks after application
In short: as §3

[22] = test system: transplanted rice plant; assay: Test Example 1: effect on crop, application before weed generation in submerged conditions (symbol a); details: application herbicide amount 320 g/ha
In short: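 Rice at 2.5 leaf stage transplanted into submerged soil (4 cm depth) sown with three weed species; herbicide applied before weed emergence.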

[23] = test system: Apera spica-venti; assay: Test Example 5: herbicidal effect by foliage application, plastic box (symbol L); details: 320 g/ha, 3 weeks after application
In short: as §3

[24] = test system: Monochoria vaginalis; assay: Test Example 2: herbicidal activity, application during weed generation in submerged conditions (symbol C); details: Table 23; application herbicide amount 320 g/ha; grade 0-5 by criteria of Test Example 1
In short: as §1

[25] = test system: Echinochloa crus-galli var. crus-galli; assay: Test Example 5: herbicidal effect by foliage application, plastic box (symbol H); details: 320 g/ha, 3 weeks after application
In short: as §3

[26] = test system: Lolium multiflorum Lam.; assay: Test Example 5: herbicidal effect by foliage application, plastic box (symbol K); details: 320 g/ha, 3 weeks after application
In short: as §3

[27] = test system: Leptochloa chinensis; assay: Test Example 3: herbicidal effect by foliage application, Wagner pot (symbol D); details: application herbicide amount 320 g/ha
In short: as §5

[28] = test system: Galium spurium; assay: Test Example 5: herbicidal effect by foliage application, plastic box (symbol Q); details: 320 g/ha, 3 weeks after application
In short: as §3

[29] = test system: Monochoria vaginalis; assay: Test Example 1: herbicidal activity, application before weed generation in submerged conditions (symbol C); details: application herbicide amount 320 g/ha
In short: as §4

[30] = test system: beet; assay: Test Example 5: effect on crop by foliage application, plastic box (symbol f); details: 320 g/ha, 3 weeks after application
In short: as §2

| SMILES | Herbicidal effect grade, B: Scirpus juncoides [1] | b: directly sowed rice plant, effect on crop grade [2] | R: Veronica persica, herbicidal effect grade [3] | c: corn, effect on crop grade [4] | d: soybean, effect on crop grade [5] | Herbicidal effect grade, B: Scirpus juncoides [6] | N: Amaranthus retroflexus, herbicidal effect grade [7] | I: Avena fatua, herbicidal effect grade [8] | e: wheat, effect on crop grade [9] | effect on crop b (directly sowed rice plant), grade 0-5 [10] | G: Setaria viridis, herbicidal effect grade [11] | F: Digitaria ciliaris, herbicidal effect grade [12] | J: Alopecurus myosuroides, herbicidal effect grade [13] | herbicidal effect on E, grade 0-5 [14] | Herbicidal effect grade, A: Echinochloa oryzacola Vasing. [15] | g: rapeseed, effect on crop grade [16] | O: Chenopodium album, herbicidal effect grade [17] | P: Stellaria media, herbicidal effect grade [18] | herbicidal effect on H (Echinochloa crus-galli var. crus-galli), grade 0-5 [19] | Herbicidal effect grade, A: Echinochloa oryzacola Vasing. [20] | also measured |
| --- | --- | --- | --- | --- | --- | --- | --- | --- | --- | --- | --- | --- | --- | --- | --- | --- | --- | --- | --- | --- | --- |
| CON=C(C)CC1CC(O)=C(c2c(C)cc(-c3ccc(SC)cc3)cc2C)C1=O (mixture of isomers) [6-030] | 0 (Herbicidal ratio of 5% or lower (almost no effect)) | 1 (Herbicidal ratio of 5% or higher and lower than 20%) | 0 (Herbicidal ratio of 5% or lower (almost no effect)) | 0 (Herbicidal ratio of 5% or lower (almost no effect)) | 0 (Herbicidal ratio of 5% or lower (almost no effect)) | 0 (Herbicidal ratio of 5% or lower (almost no effect)) | 0 (Herbicidal ratio of 5% or lower (almost no effect)) | 0 (Herbicidal ratio of 5% or lower (almost no effect)) | 0 (Herbicidal ratio of 5% or lower (almost no effect)) | 2 (Herbicidal ratio of 20% or higher and lower than 40%) | 4 (Herbicidal ratio of 70% or higher and lower than 90%) | 4 (Herbicidal ratio of 70% or higher and lower than 90%) | 1 (Herbicidal ratio of 5% or higher and lower than 20%) | 0 (Herbicidal ratio of 5% or lower (almost no effect)) | 2 (Herbicidal ratio of 20% or higher and lower than 40%) | 3 (Herbicidal ratio of 40% or higher and lower than 70%) | 0 (Herbicidal ratio of 5% or lower (almost no effect)) | 0 (Herbicidal ratio of 5% or lower (almost no effect)) | 4 (Herbicidal ratio of 70% or higher and lower than 90%) | 3 (Herbicidal ratio of 40% or higher and lower than 70%) | M: Abutilon theophrasti, herbicidal effect grade [21]: 0 (Herbicidal ratio of 5% or lower (almost no effect)); Effect grade on crop, a: transplanted rice plant [22]: 2 (Herbicidal ratio of 20% or higher and lower than 40%); L: Apera spica-venti, herbicidal effect grade [23]: 0 (Herbicidal ratio of 5% or lower (almost no effect)); Herbicidal effect grade, C: Monochoria vaginalis [24]: 0 (Herbicidal ratio of 5% or lower (almost no effect)); H: Echinochloa crus-galli var. crus-galli, herbicidal effect grade [25]: 1 (Herbicidal ratio of 5% or higher and lower than 20%); K: Lolium multiflorum Lam., herbicidal effect grade [26]: 1 (Herbicidal ratio of 5% or higher and lower than 20%); herbicidal effect on D (Leptochloa chinensis), grade 0-5 [27]: 5 (Herbicidal ratio of 90% or more (almost completely withered)); Q: Galium spurium, herbicidal effect grade [28]: 0 (Herbicidal ratio of 5% or lower (almost no effect)); Herbicidal effect grade, C: Monochoria vaginalis [29]: 0 (Herbicidal ratio of 5% or lower (almost no effect)); f: beet, effect on crop grade [30]: 0 (Herbicidal ratio of 5% or lower (almost no effect)) |
| CON=C(C)CC1CC(O)=C(c2c(C)cc(Oc3ccc(C(F)(F)F)cn3)cc2C)C1=O (mixture of isomers) [6-054] | 1 (Herbicidal ratio of 5% or higher and lower than 20%) | 3 (Herbicidal ratio of 40% or higher and lower than 70%) | 0 (Herbicidal ratio of 5% or lower (almost no effect)) | 4 (Herbicidal ratio of 70% or higher and lower than 90%) | 0 (Herbicidal ratio of 5% or lower (almost no effect)) | 0 (Herbicidal ratio of 5% or lower (almost no effect)) | 0 (Herbicidal ratio of 5% or lower (almost no effect)) | 3 (Herbicidal ratio of 40% or higher and lower than 70%) | 0 (Herbicidal ratio of 5% or lower (almost no effect)) | 5 (Herbicidal ratio of 90% or more (almost completely withered)) | 5 (Herbicidal ratio of 90% or more (almost completely withered)) | 4 (Herbicidal ratio of 70% or higher and lower than 90%) | 5 (Herbicidal ratio of 90% or more (almost completely withered)) | 3 (Herbicidal ratio of 40% or higher and lower than 70%) | 2 (Herbicidal ratio of 20% or higher and lower than 40%) | 1 (Herbicidal ratio of 5% or higher and lower than 20%) | 4 (Herbicidal ratio of 70% or higher and lower than 90%) | 0 (Herbicidal ratio of 5% or lower (almost no effect)) | 5 (Herbicidal ratio of 90% or more (almost completely withered)) | 1 (Herbicidal ratio of 5% or higher and lower than 20%) | M: Abutilon theophrasti, herbicidal effect grade [21]: 0 (Herbicidal ratio of 5% or lower (almost no effect)); Effect grade on crop, a: transplanted rice plant [22]: 2 (Herbicidal ratio of 20% or higher and lower than 40%); L: Apera spica-venti, herbicidal effect grade [23]: 5 (Herbicidal ratio of 90% or more (almost completely withered)); Herbicidal effect grade, C: Monochoria vaginalis [24]: 0 (Herbicidal ratio of 5% or lower (almost no effect)); H: Echinochloa crus-galli var. crus-galli, herbicidal effect grade [25]: 5 (Herbicidal ratio of 90% or more (almost completely withered)); K: Lolium multiflorum Lam., herbicidal effect grade [26]: 4 (Herbicidal ratio of 70% or higher and lower than 90%); herbicidal effect on D (Leptochloa chinensis), grade 0-5 [27]: 5 (Herbicidal ratio of 90% or more (almost completely withered)); Q: Galium spurium, herbicidal effect grade [28]: 0 (Herbicidal ratio of 5% or lower (almost no effect)); Herbicidal effect grade, C: Monochoria vaginalis [29]: 0 (Herbicidal ratio of 5% or lower (almost no effect)); f: beet, effect on crop grade [30]: 0 (Herbicidal ratio of 5% or lower (almost no effect)) |

Reference: patent US11000033B2, “Ketone or oxime compound, and herbicide” (NISSAN CHEMICAL CORPORATION, priority 2014, dated 2021)
